“Also recorded” adds a separate entry of the source. Blank lines part the entries; values can stand above or below the compound they belong to.
Legend:
pre-miR-21 = experiment: RT-qPCR of pre-miR-21 levels in MDA-MB-231 cells; type: cell-based, human; conditions: MDA-MB-231, RT-qPCR
Protocol: Cell Culture. Cells were cultured at 37° C. and 5% CO2. MDA-MB-231 cells (HTB-26, ATCC) were cultured in RMPI 1640 medium with L-glutamine & 25 mM HEPES supplemented with 1× Antibiotic/Antimycotic solution (Corning) and 10% FBS. MCF-10A cells (CRL-10317, ATCC) were cultured in 1×DMEM/F12 50/50 with L-glutamine & 15 mM HEPES (Corning) supplemented with 20% FBS, 1× Antibiotic/Antimycotic solution, 20 ng/mL human epidermal growth factor (Pepro Tech, Inc.), 10 μg/mL insulin (Sigma-Aldrich), and […] hydrocortisone (Pfaltz & Bauer). For compound treatment, compound stocks either in DMSO or water were diluted in growth medium and added to cells for the indicated time. Plasmid DNA to overexpress pre-miR-21 in pcDNA 3.1 (Addgene 21114) or a plasmid DNA encoding the pre-miR-21 mutant (custom purchased from GenScript USA, Inc.) was transfected with jetPRIME per the manufacturer's protocol. After transfection, the medium was replaced with growth medium containing the compound of interest, prepared as described above. The RNase L-targeting siRNA or a control siRNA was transfected with Lipofectamine RNAiMAX reagent (Invitrogen) per the manufacturer's protocol.
RNA Isolation and Quantitative Real-Time PCR (RT-qPCR). After treatment, total RNA was extracted and purified by using the Zymo Quick-RNA mini prep kit per the manufacturer's protocol. Reverse Transcription (RT) for mature miRNAs as well as pri- and pre-miR-21 was completed on 200 ng of RNA by using a miScript 11 RT kit (QIAGEN) according to manufacturer's protocol. RT of mRNAs was performed by using QScript kit (Quanta Bio). An Applied Biosystems QS5 384-well PCR system was used to complete qPCR experiments using Power Sybr Green Mater Mix (Life Technologies) as described previously^6.

[1] = target: T1, RNase L / pre-miR-21 ternary complex (Homo sapiens, UniProt Q05823); experiment: RNase L immunoprecipitation; type: cell-based; conditions: 1 μM, MDA-MB-231
T1 construct: endogenous in cells; host or cells: MDA-MB-231
T1 sequence (Q05823 1-741): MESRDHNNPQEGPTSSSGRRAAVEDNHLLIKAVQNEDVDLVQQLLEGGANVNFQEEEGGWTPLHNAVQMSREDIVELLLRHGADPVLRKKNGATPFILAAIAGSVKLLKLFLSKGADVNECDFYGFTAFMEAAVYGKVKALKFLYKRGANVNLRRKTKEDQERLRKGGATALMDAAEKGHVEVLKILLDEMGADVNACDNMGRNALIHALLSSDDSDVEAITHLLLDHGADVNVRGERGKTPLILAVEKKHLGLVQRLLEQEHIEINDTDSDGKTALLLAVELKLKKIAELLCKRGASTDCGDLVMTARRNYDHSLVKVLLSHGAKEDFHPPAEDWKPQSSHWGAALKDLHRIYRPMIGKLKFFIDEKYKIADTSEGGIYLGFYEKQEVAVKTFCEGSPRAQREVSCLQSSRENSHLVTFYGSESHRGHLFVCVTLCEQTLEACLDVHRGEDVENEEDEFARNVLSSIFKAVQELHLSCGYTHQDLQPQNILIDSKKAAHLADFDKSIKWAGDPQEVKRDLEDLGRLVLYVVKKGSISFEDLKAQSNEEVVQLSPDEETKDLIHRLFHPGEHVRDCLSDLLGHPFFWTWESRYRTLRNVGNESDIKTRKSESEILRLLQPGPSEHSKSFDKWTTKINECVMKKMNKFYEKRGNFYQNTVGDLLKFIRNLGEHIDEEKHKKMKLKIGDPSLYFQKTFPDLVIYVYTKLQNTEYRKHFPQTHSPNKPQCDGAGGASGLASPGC
Protocol: RNase L Immunoprecipitation. MDA-MB-231 cells were seed in 6-well plates and were treated with vehicle, 4 (1 μM) or 5 (1 μM) when the cells reached ~70% confluency. After 48 h, the cells were harvested and lysed in 100 μL of M-PER buffer containing protease inhibitor and RNaseOUT recombinant Ribonuclease Inhibitor (Invitrogen) on ice for 20 min. The lysate was centrifuged at 13,000×g for 15 min, and the supernatants were incubated with Dynabeads Protein A (Life Technologies) bound to RNase L mouse primary antibody or β-actin mouse primary antibody overnight at 4° C. After incubation, the beads were washed with 1×DPBS containing 0.02% (v/v) Tween-20, and RNA was extracted by using a miRNeasy Mini Kit (Qiagen) per the manufacturer's instructions. RT-qPCR was performed as described above. Relative RNA levels were determined by ΔΔCt method by normalizing to 18S rRNA levels. Normalized fold change was calculated as previously described^6.

FLT3 = target: T2, FLT3 (Homo sapiens, UniProt P36888); experiment: Cellular Chem-CLIP/C-Chem-CLIP to study occupancy of an RTK; type: cell-based; conditions: 0.01-10 μM pre-treatment
T2 construct: endogenous in cells; host or cells: MDA-MB-231
T2 sequence (P36888 27-993): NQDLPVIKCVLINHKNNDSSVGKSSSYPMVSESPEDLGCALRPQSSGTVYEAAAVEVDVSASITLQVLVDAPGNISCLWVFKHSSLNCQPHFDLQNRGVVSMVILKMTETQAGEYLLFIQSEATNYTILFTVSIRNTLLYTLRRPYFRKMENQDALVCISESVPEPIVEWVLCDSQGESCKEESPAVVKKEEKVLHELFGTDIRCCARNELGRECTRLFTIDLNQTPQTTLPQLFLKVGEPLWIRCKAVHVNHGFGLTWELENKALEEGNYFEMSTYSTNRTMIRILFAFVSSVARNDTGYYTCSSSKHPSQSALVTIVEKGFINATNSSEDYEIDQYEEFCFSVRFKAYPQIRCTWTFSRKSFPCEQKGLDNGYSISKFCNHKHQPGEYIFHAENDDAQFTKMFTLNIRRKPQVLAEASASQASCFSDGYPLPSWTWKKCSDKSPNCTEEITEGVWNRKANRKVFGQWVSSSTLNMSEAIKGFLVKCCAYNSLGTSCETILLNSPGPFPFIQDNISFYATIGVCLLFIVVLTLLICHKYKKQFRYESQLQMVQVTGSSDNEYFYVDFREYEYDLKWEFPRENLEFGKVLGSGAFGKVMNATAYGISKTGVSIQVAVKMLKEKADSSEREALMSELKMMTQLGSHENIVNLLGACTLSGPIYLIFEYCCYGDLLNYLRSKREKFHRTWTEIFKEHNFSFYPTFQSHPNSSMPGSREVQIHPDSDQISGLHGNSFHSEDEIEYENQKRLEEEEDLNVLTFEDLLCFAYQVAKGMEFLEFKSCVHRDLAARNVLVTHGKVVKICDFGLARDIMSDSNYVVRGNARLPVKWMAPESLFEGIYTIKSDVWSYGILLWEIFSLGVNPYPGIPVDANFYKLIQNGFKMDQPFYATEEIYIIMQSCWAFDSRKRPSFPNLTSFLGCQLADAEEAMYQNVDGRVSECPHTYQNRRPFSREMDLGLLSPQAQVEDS
Protocol: Cellular Chem-CLIP/C-Chem-CLIP to Study Occupancy of an RTK. Compound treatment and isolation of cells was completed as described for cellular occupancy studies of pre-miR-21. Total protein was extracted and concentration determined as described in the “Western Blotting” section. Approximately 1 mg of total protein was used for following pull-down experiments, using a protocol adapted from a previously published method 8. Protein cross-linked to the probe were clicked to disulfide biotin azide as described above except the amount of each reagents was doubled (20 μL/sample). Then, to the mixture was added ice-cold, 4:1 mixture of methanol/chloroform (2.5 mL) followed by 1 mL of ice-cold 1×DPBS. The mixture was centrifuged at 5000×g for 10 min at 4° C. to fractionate a protein interphase between organic and aqueous layers. […] The washed protein mixture was centrifuged at 5000×g for 10 min at 4° C. to pellet the protein. The pellet was dissolved in H2O, and to this solution was added 20 μLL streptavidin beads for 30 min at room temperature. The solution was removed, and the beads were washed once with 0.2% SDS in 1×DPBS, twice with detergent-free 1×DPBS and twice with nanopure water. After these washing steps, protein was cleaved as described above. The supernatant was collected, and protein concentration was determined with Pierce Micro BCA Protein Assay kit. […] Sample preparation was completed as described above for cellular Chem-CLIP studies. Western blotting was performed on total protein (10 μg) before or after pull-down, indicated as “Input” or “Output”, as described in Western Blotting.

[2] = test system: 3×2 RNA internal loop library (3×2 ILL); experiment: AbsorbArray 2DCS selection with Inforna fitness analysis; type: binding, human; conditions: Zobs>8
Protocol: Construction of AbsorbArray Small Molecule Microarrays. Microarrays were constructed as previously reported^4. Briefly, a 1% agarose solution was poured onto a glass slide and dried on the benchtop. A 200 nL aliquot of 68 hit compounds (10 mM in DMSO) was pinned onto the array from a 384-well plate using Biomek NXP Laboratory Automation Workstation. Slides were then dried overnight to obtain a thin, invisible agarose layer. Slides were washed three times with 1×PBST^5 and then three times with nanopure water. Slides were dried completely in the air before RNA selection, completed by Two-Dimensional Combinatorial Screening (2DCS).
RNA Selection and Screening by 2DCS. The 3×2 RNA ILL was 5′-end ^32P-labeled as previously described^7 and 2DCS selections were completed as previously described 4. All oligonucleotides were folded as described in the “Solution-based Dye Displacement Assay” section. Small molecule microarrays were pre-equilibrated by 3 mL 1× AB2 for 5 min. After removing the pre-equilibration buffer, 5′-end labeled folded 3×2 RNA ILL (~50,000 cpm) was added in 3 mL 1× AB2 containing 1 mM MgCl2 in the presence of competitor oligonucleotides (100 μM each). The oligonucleotide solution was evenly distributed across the microarray surface with a custom-cut piece of Parafilnm. After incubating for 30 min at room temperature, the Parafilm was removed, and the slide was washed gently by submersion in 1× AB2 for 30 s. This washing step was repeated three additional times, and the array was dried on the benchtop for 1 h. […] To harvest and collect the bound RNAs from the ILL, 1 μL of nanopure water was added to each spot. After 30 s, the water drop was absorbed into agarose gel, hydrating it such that it could be excised with a toothpick. The RNAs were eluted from the agarose by simple incubation with water, and then treated with RNase-free DNase I. A unique barcode for each small molecule was installed by reverse transcription (RT). Barcoded RNAs were amplified by PCR, purified, and identified by next-generation sequencing (NGS) using an Ion Proton deep sequencer using PI chips (60-80 million reads) as previously described^2.

Structure (SMILES): CCOC(=O)C1=C(Nc2ccccc2)S/C(=C\c2ccc(OCCOCCOCCOCCNC(C)=O)c(O)c2)C1=O [Compound 6]
pre-miR-21 levels (pre-miR-21): had no effect
enrichment of pre-miR-21 in RNase L immunoprecipitation [1]: not

Structure (SMILES): CCOC(=O)C1=C(Nc2ccccc2)S/C(=C\c2ccc(O)c(OCCOCCOCCOCCNC(=O)NCCN3CCN(c4ccc5[nH]c(-c6c(N)c7c(F)cccc7[nH]c6=O)nc5c4)CC3)c2)C1=O [Compound 7]
competition of FLT3 enrichment by probe 4 (FLT3): competed off; also recorded: between that observed for 1 and 2
pre-miR-21 levels (pre-miR-21): increasing pre-miR-21 levels
enrichment of pre-miR-21 in RNase L immunoprecipitation [1]: not

Structure (SMILES): CCCNC(=O)NCCN1CCN(c2ccc3[nH]c(-c4c(N)c5c(F)cccc5[nH]c4=O)nc3c2)CC1 [Compound 8]
competition of FLT3 enrichment by probe 4 (FLT3): competed off

Structure (SMILES): COc1ccc(NC(=O)[C@H](CCCCN)NC(=O)c2cc(NC(=O)[C@H](CCCCN)NC(=O)c3cc(NC(=O)[C@H](CCCCN)NC(=O)c4cc(NC(=O)[C@@H](N)CCCCN)ccc4OC)ccc3OC)ccc2OC)cc1C(N)=O [Delparantag]
number of binding RNA motifs [2]: 284

Results, then the compound that gave them:

number of binding RNA motifs [2]: 274
Structure (SMILES): CN1c2ccccc2Sc2ccc(CC(=O)O)cc21 [Metiazinic Acid]

number of binding RNA motifs [2]: 278
Structure (SMILES): NCCCNc1ccc2c3c(nn2CCNCCO)-c2c(O)ccc(O)c2C(=O)c13 [Piroxantrone]
